Measured values from US9216183B2, “Topical treatment for chemotherapy induced eyelash loss or hypotrichosis using prostamide F2 alpha agonists” (ALLERGAN, INC., priority 2002, dated 2015).
Where “and” joins values, the source holds several entries; their conditions need not be identical. Equal entries are not always repeated.

System: eyelashes of subjects with chemotherapy-induced hypotrichosis
Test: GEA / ESQ Domain 2 responder analysis, 1-year clinical study, chemotherapy-induced hypotrichosis
Format: in vivo, human
Description: The full 12-month study consisted of 2 distinct 6-month treatment periods, treatment period 1 (TP1) and treatment period 2 (TP2). Eligible post-chemotherapy subjects were randomly assigned in a 3:1 ratio to receive bimatoprost or vehicle for TP1. In TP2, the subjects were either maintained on or switched to bimatoprost treatment. The primary efficacy endpoint was the proportion of treatment responders at month 4 based on a composite endpoint, defined by: a) at least a 1-grade improvement from baseline in the GEA score, and b) at least a 3-point improvement from baseline in the total score for Domain 2 of the ESQ. The GEA is an investigator assessment of eyelash prominence and the ESQ score is patients own perception of their eyelashes. A one-year, multicenter, randomized, double-masked, vehicle-controlled study. Adult post-chemotherapy and idiopathic eyelash hypotrichosis subjects were enrolled based on their score of 1 or 2 on a four point ordinal Global Eyelash Assessment (GEA) scale, and in addition having a low score on a PRO measure associated with 'psychological impact' of the condition, a domain-2 of the Eyelash Satisfaction Questionnaire (ESQ). The study involved two treatment periods of six months each. In the first treatment period, subjects for both populations were randomized 3:1 for QD bimatoprost: vehicle treatment. In the second 6-month treatment period, all subjects were moved to bimatoprost treatment, except for a group of bimatoprost treated idiopathic hypotrichosis subjects (n=55) who were switched to vehicle to investigate the effect of drug discontinuation. The study included 9 visits over the 12-month treatment period. The primary end point was the proportion of responders within each treatment group based on a composite measure of GEA and ESQ Domain-2 (investigator assessed eyelash prominence and subject's assessment of 'psychological impact' related to eyelashes) at month-4. This multicenter, double-masked, randomized, parallel-group study included two 6-month treatment periods. Subjects with idiopathic hypotrichosis were randomized to 3 treatment groups: 1) treatment period 1 (TP1) and TP2: bimatoprost; 2) TP1: bimatoprost; TP2: vehicle; and 3) TP1: vehicle; TP2: bimatoprost. Subjects with chemotherapy-induced hypotrichosis were randomized to 2 treatment groups: 1) TP1: bimatoprost or vehicle; and 2) TP2: bimatoprost. The primary endpoint was a composite of at least a 1-grade improvement in investigator-assessed Global Eyelash Assessment (GEA), and at least a 3-point improvement in subject-reported Eyelash Satisfaction Questionnaire (ESQ) Domain 2 (self-perceived confidence, attractiveness, and professionalism) at month 4. Secondary measures included digitally assessed eyelash characteristics (i.e., eyelash length, fullness, and darkness). Idiopathic hypotrichosis subjects were randomized to 3 treatment arms in a 2:1:1 ratio: bimatoprost during both treatment periods; vehicle in TP1 and bimatoprost in TP2; and bimatoprost in TP1 and vehicle in TP2. Chemotherapy-induced hypotrichosis subjects were randomized in a 3:1 ratio to receive bimatoprost during both treatment periods or vehicle in TP1 followed by bimatoprost in TP2. Male or female subjects at least 18 years of age who met these criteria were eligible for inclusion in the study: a score of 1 or 2 on the clinician-graded global eyelash assessment (“GEA”); a score of 1 (very much disagree) or 2 (disagree) on each of 3 items (16 [confidence], 19 [attractiveness], and 18 [professionalism]) on the subject-assessed eyelash satisfaction questionnaire (“esq”); best-corrected visual acuity (“bcva”) score equivalent to a […] acuity of 20/100 or better in each eye; and intraocular pressure (“iop”) 20 mm hg or less in each eye. […]

[1] = postchemotherapy, Month 4, listed as Bimatoprost
[2] = postchemotherapy, Month 4, listed as bimatoprost
[3] = postchemotherapy, Month 12, bimatoprost throughout

CCNC(=O)CCC/C=C\C[C@@H]1[C@@H](/C=C/[C@@H](O)CCc2ccccc2)[C@H](O)C[C@@H]1O [Bim 0.03%, bimatoprost]
GEA response rate (FIG. 9) (chemotherapy-induced hypotrichosis, duration of the trial): about 80% | Primary composite endpoint responders (≧1-grade GEA and ≧3-point ESQ Domain 2 improvement) (postchemotherapy, Month 1): (6.3%) | Primary composite endpoint responders (≧1-grade GEA and ≧3-point ESQ Domain 2 improvement) (postchemotherapy, Month 2): (22.9%) | Responders with ≧1-grade increase in GEA score (postchemotherapy, Month 4): 72.9% | Responders with ≧2-grade increase in GEA score (postchemotherapy, Month 4): 36.5% | Responders with ≧3-point increase in ESQ Domain 2 (postchemotherapy, Month 4): 40.6% | Primary composite endpoint responders (≧1-grade GEA and ≧3-point ESQ Domain 2 improvement) [1]: 37.5% | Responders with ≧1-grade increase in GEA score [1]: 72.9% | Primary composite endpoint responders (≧1-grade GEA and ≧3-point ESQ Domain 2 improvement) [2]: 37.5% | Responders with ≧1-grade increase in GEA score [2]: > 70% and 72.9% | Primary composite endpoint responders (≧1-grade GEA and ≧3-point ESQ Domain 2 improvement) (postchemotherapy, Month 4, listed as bimatoprost 0.03%): 37.5% | Responders with ≧1-grade increase in GEA score (postchemotherapy, Month 6): 80.2% | Responders with ≧2-grade increase in GEA score (postchemotherapy, Month 6): 45.8% | Responders with ≧3-point increase in ESQ Domain 2 (postchemotherapy, Month 6): 47.9% | Primary composite endpoint responders (≧1-grade GEA and ≧3-point ESQ Domain 2 improvement) (postchemotherapy, Month 6, listed as Bim/Bim): 46.9% | Primary composite endpoint responders (≧1-grade GEA and ≧3-point ESQ Domain 2 improvement) (postchemotherapy, Month 6, listed as Bimatoprost): 46.9% | Primary composite endpoint responders (≧1-grade GEA and ≧3-point ESQ Domain 2 improvement) (postchemotherapy, Month 6, listed as bimatoprost): 46.9% | Responders with ≧2-grade increase in GEA score (postchemotherapy, Month 10, Veh/Bim (4 months after starting bimatoprost)): 50% | Primary composite endpoint responders (≧1-grade GEA and ≧3-point ESQ Domain 2 improvement) (postchemotherapy, Month 10, bimatoprost throughout): 54.2% | Responders with ≧2-grade increase in GEA score (postchemotherapy, Month 12, Veh/Bim): 52.9% | Primary composite endpoint responders (≧1-grade GEA and ≧3-point ESQ Domain 2 improvement) (postchemotherapy, Month 12, bimatoprost for 12 months (Bim/Bim)): 61.5% | Responders with ≧1-grade increase in GEA score [3]: 90.6% | Responders with ≧3-point increase in ESQ Domain 2 [3]: 63.5% | Responders with ≧2-grade increase in GEA score (postchemotherapy, Month 12, bimatoprost up to 12 months): 57.3% | Primary composite endpoint responders (≧1-grade GEA and ≧3-point ESQ Domain 2 improvement) (postchemotherapy, Month 12, vehicle first 6 months then bimatoprost (Veh/Bim)): 67.6% | ESQ Domain 2 mean change in total score from baseline (postchemotherapy, visit not stated (months 4 and 6 discussed)): 2.8
